Reference: article PMC2931832 (ACS medicinal chemistry letters, 2010)

Tests used:
CYP2C9 = CYP2C9 (Homo sapiens, UniProt P11712); test: cytochrome p450 CYP2C9 inhibition; details: 6 µM of compound
EGFR = EGFR (Homo sapiens, UniProt P00533); test: EGFR kinase activity, fluorescence-based coupled-enzyme assay; type: biochemical
H1299 lung tumor cell = test: cell culture-based proliferation assay, H1299; details: Homo sapiens, NCI-H1299, read-out: IC50 of H1299 tumor cell growth
[1] = molecular target: human Ether-a-go-go Related Gene (hERG) K+ channel (Homo sapiens, UniProt Q12809); test: hERG K+ channel binding / blockage; details: 6 µM of compound
human Ether-a-go-go Related Gene (hERG) K+ channel, sequence (Q12809 whole entry): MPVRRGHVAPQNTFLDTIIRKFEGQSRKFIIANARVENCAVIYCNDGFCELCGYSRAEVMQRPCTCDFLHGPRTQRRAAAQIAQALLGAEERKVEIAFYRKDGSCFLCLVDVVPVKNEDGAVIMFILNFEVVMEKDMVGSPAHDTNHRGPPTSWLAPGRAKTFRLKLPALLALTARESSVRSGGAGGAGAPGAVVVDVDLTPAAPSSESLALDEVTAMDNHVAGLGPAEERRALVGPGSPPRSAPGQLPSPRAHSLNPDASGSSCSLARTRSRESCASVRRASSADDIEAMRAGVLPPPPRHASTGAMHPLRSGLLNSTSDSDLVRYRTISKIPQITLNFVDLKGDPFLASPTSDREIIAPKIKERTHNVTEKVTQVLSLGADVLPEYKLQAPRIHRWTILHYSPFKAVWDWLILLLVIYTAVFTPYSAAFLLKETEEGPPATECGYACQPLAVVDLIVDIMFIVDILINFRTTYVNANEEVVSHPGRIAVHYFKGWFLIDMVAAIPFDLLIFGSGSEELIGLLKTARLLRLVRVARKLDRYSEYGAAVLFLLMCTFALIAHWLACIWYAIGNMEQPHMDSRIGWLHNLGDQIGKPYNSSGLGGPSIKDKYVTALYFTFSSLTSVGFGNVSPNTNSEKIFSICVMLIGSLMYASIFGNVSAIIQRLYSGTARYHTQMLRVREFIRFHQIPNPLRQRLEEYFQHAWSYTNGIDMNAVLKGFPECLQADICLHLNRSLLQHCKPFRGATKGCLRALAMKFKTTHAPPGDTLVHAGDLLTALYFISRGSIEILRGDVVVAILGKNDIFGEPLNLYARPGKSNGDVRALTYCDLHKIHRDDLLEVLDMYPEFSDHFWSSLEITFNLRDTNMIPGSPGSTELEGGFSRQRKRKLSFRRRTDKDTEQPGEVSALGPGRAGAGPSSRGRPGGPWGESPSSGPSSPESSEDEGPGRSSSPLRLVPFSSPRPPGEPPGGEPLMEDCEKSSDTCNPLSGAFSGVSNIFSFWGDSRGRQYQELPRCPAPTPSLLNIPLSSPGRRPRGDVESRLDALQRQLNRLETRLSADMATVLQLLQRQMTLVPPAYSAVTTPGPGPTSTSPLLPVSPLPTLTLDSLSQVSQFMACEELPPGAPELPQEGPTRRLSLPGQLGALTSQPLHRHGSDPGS

[2] = system: breast, ovarian and lymphatic leukemia; details: cited from earlier work
H460 lung tumor cell = test: cell culture-based proliferation assay, H460; details: Homo sapiens, NCI-H460, read-out: IC50 of H460 tumor cell growth

CYP2C9, sequence (P11712 whole entry): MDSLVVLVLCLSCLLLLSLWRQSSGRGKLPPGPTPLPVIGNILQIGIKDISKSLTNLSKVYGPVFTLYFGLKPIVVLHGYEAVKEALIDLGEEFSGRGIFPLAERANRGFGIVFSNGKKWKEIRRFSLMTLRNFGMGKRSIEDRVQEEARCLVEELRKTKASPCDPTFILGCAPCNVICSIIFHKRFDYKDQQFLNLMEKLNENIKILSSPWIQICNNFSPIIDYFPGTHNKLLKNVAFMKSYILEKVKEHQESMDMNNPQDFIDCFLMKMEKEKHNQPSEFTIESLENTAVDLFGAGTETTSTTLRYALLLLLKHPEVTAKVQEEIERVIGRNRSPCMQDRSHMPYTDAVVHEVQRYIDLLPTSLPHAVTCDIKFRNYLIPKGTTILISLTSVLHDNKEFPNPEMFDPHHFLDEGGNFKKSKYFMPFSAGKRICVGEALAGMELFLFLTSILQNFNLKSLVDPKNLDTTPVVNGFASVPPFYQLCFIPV
EGFR, sequence (P00533 25-1210): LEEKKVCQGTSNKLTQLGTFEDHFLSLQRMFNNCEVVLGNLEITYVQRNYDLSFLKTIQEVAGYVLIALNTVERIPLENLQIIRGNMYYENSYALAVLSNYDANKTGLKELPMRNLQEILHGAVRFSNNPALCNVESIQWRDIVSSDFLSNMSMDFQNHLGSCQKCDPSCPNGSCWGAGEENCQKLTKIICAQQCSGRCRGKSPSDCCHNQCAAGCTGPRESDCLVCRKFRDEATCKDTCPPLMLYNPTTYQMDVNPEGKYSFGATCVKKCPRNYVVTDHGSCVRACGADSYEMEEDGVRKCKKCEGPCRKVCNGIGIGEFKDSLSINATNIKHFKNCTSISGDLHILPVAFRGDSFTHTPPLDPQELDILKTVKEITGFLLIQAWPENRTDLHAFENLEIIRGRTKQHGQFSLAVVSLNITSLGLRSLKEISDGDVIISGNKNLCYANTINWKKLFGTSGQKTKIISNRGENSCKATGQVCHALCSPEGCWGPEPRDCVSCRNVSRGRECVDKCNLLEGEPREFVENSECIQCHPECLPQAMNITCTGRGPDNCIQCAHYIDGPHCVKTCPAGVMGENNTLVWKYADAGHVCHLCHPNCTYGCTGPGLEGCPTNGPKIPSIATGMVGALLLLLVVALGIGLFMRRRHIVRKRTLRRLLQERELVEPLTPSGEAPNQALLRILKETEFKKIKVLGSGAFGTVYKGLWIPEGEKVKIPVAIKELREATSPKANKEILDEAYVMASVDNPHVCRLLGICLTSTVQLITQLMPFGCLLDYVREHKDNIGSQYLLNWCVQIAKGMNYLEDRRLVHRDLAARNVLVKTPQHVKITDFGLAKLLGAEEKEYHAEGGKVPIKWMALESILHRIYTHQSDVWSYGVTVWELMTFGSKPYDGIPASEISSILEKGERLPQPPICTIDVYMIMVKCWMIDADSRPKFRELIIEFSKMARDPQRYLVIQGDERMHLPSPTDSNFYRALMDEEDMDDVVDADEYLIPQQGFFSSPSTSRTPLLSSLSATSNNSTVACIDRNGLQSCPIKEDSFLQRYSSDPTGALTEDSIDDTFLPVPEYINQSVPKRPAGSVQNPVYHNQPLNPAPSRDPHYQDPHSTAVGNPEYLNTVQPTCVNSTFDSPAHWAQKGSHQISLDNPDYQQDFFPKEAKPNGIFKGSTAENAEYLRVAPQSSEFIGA

For C[C@H]1Oc2cc3c(-c4c(O)cc(O)c5c(O)c6c(cc45)O[C@H](C)[C@@H](C)C6=O)c(O)cc(O)c3c(O)c2C(=O)[C@@H]1C [Compound 12, Chaetochromin A], the “inhibition of CYP2C9 (in words)” value (CYP2C9) was “significant inhibition”, the IC50 (EGFR) was 0.25 µM and the IC50 (H1299 lung tumor cell) was roughly 1 µM. The “hERG K+ channel blockage (in words)” value [1] was “significant blockage” and the “efficacy in breast, ovarian and lymphatic leukemia” value [2] was “shown efficacy”.
With C#Cc1cccc(Nc2ncnc3cc(OCCOC)c(OCCOC)cc23)c1 [erlotinib, reference compound] the IC50 (H460 lung tumor cell) was roughly 10 µM, the “inhibition of CYP2C9 (in words)” value (CYP2C9) was “little inhibition” and the IC50 (H1299 lung tumor cell) was roughly 10 µM.
